Data from patent US20260167637A1, “NLRP3 INFLAMMASOME INHIBITOR AND USE THEREOF” (TransThera Sciences (Nanjing), Inc., priority 2022, published 2026).
Read-outs that look alike come from different tables or passages of the source.

Tests used:
[1] = molecular target: T1, THP-1 cell NLRP3 (Homo sapiens, UniProt Q96P20); test: Inhibitory activity against cell NLRP3 inflammasomes in THP-1 cells (LPS + nigericin, ELISA of supernatant); format: cell-based; conditions: PMA-differentiated THP-1 cells, LPS 500 ng/mL 3 h, compound 1 h, nigericin 30 min; human IL-10 (so in the source) in supernatant by ELISA
T1 construct: endogenous in cells; host or cells: THP-1 cells, PMA-differentiated, stimulated with LPS and nigericin
Experimental: Experimental Example 1: Assay for Inhibitory Activity of Compounds Disclosed Herein Against Cell NLRP3 Inflammasomes
Test substances: The compounds of the present disclosure, prepared according to the methods described in the examples.
THP-1 is an immortalized human […] cell line.
Instrument: microplate reader (made by PE)
Assay Method: 1. THP-1 cells were cultured in 1640 complete medium (500 mL of 1640+56 mL of FBS+560 μL of 1000×P/S+2 μL of mercaptoethanol), and cells at passages 3-20 were used.
2. Culture plate coating: 100 μL of polylysine solution was added to a 96-well cell culture plate. After 30 min of incubation at 37° C., the solution was discarded, and the plate was washed with PBS twice for later use.
3. Induction of THP-1 differentiation: THP-1 cells were resuspended in an appropriate amount of complete medium containing 10 ng/mL PMA to form a cell suspension with a density of 5×10^5 cells/mL. The suspension was added to the 96-well plate at 100 μL/well, and the plate was incubated overnight in a 37° C. carbon dioxide cell incubator for 16 h.
4. Stimulation of THP-1: • a. Serum-free THP-1 culture medium containing LPS was added, with the final concentration being 500 ng/mL. The plate was incubated in a 37° C. carbon dioxide cell incubator for 3 h. • b. Mother liquors of the compounds to be tested with gradient concentrations were prepared with DMSO, added to the cells, and well mixed. Dilution was finally performed in a 1:1000 ratio. The plate was incubated in a 37° C. carbon dioxide cell incubator for 1 h. • c. Nigericin was added to each well, with the final concentration being […]. The plate was incubated in a carbon dioxide cell incubator at 37° C. for 30 min. • d. The medium in the wells was transferred to a new culture plate, and after 5 min of centrifugation at 3000 rpm, the supernatant was transferred to a new 96-well plate. • e. The content of human […] in the collected cell culture supernatant samples was determined with a commercial ELISA kit by following the instructions.

[2] = Stability in canine liver microsomes; format: in vitro ADME; conditions: canine liver microsomes 0.5 mg protein/mL, 1 μM test substance, β-NADPH 1 mM, 37° C.; for microsomal CLint at 1 μM / half-life at 1 μM: dog; for half-life at 1 μM: read-out: Canine t1/2
Experimental: (§1) Experimental Example 2: Evaluation of Stability of Compounds Disclosed Herein in Liver Microsomes
(§2) Composition of experimental incubation system:
(§3) An appropriate amount of the compound was precisely weighed out and dissolved in DMSO to prepare a 10.0 mM stock solution. The 10.0 mM stock solution was diluted with DMSO to 1.0 mM, and then diluted with phosphate buffer (containing 3 mM MgCl2) to prepare a 10 μM test substance working solution for later use (DMSO content in the reaction system: 0.1%).
(§4) An appropriate amount of β-NADPH was precisely weighed out and then prepared into a 5 mM β-NADPH working solution using phosphate buffer (containing 3 mM MgCl2) for later use.
(§5) (1) The liver microsomes (20 mg protein/mL) were taken out from a −80° C. freezer and pre-incubated on a 37° C. water bath thermostatic oscillator for 3 min to thaw for later use.
(§6) (2) A mixed solution of the incubation system (without β-NADPH) was prepared according to “composition of experimental incubation system” described above, and pre-incubated on a 37° C. water bath thermostatic oscillator for 2 min.
(§7) (3) Control group (without β-NADPH): 10 μL of phosphate buffer (containing 3 mM MgCl2) and 40 μL of the mixed solution of the incubation system in step (2) were taken and mixed, and the mixture was vortexed for 30 s and mixed well, resulting in a total reaction volume of 50 μL; the sample was duplicated. The mixture was placed on a 37° C. water bath thermostatic oscillator for incubation, and timing was started, with termination time points set at 0 min and 60 min.
(§8) (4) Sample group: 10 μL of the β-NADPH solution (5 mM) and 40 μL of the mixed solution in step (2) were taken and mixed, resulting in a total reaction volume of 50 μL; the mixture was vortexed for 30 s and mixed well; the sample was duplicated. The mixture was placed on a 37° C. water bath thermostatic oscillator for incubation, and timing was started, with termination time points set at 0 min, 5 min, 10 min, 20 min, 30 min, and 60 min.
(§9) (5) The mixture was vortexed for 5 min and then centrifuged at 4000 rpm for 10 min.
(§10) (6) 50 μL of the supernatant was taken and added to 150 μL of water, and the resulting mixture was vortexed and mixed well before LC/MS/MS analysis.
(§11) The half-life (t1/2) and clearance rate (CL) were calculated using the following first-order kinetic formula
(§12) Notes: k denotes the slope of the logarithm of the remaining amount of a compound vs. time, and Vd denotes apparent volume of distribution.

[3] = Stability in rat liver microsomes; format: in vitro ADME; conditions: rat liver microsomes 0.5 mg protein/mL, 1 μM test substance, β-NADPH 1 mM, 37° C.; for half-life at 1 μM: read-out: Rat t1/2
Experimental: as §1, §2, §3, §4, §5, §6, §7, §8, §9, §10, §11, §12

[4] = Pharmacokinetic study in mice; format: in vivo, female C57BL/6J mice; conditions: female, C57BL/6J, mouse, plasma
Experimental: (§13) The compounds were prepared into solutions using a mixed vehicle composed of 5% dimethyl sulfoxide, 20% (30% solutol), and 75% normal saline. The compound solutions were intragastrically administered to female C57BL/6J mice at a dose of 10 mg/kg, and the blood collection time points were: 15 min, 30 min, 1 h, 2 h, 4 h, 6 h, 8 h, and 24 h.
as §13, with “intravenously injected into” for “intragastrically administered to”, “5” for “10”, “were: 5 min,” for “were:”
The samples to be tested were taken out from a −80° C. freezer, naturally thawed at room temperature, and then vortexed for 5 min.
Plasma samples of 10 μL from different individuals were accurately pipetted into 1.5 mL centrifuge tubes.
900 μL of a 100 ng/mL internal standard working solution (a solution of tolbutamide in acetonitrile) was added, and the mixture was well mixed.
After 5 min of vortexing, centrifugation was performed at 12,000 rpm for 5 min.
50 μL of the supernatant was accurately pipetted into a 96-well plate to which water was added in advance at 150 μL/well.
After 5 min of vortexing, LC-MS/MS analysis was performed.
The results of the test substance concentrations were output by Analyst 1.6.3 of AB Sciex.
Parameters such as mean, standard deviation, and coefficient of variation (excluding those output directly by Analyst 1.6.3) were calculated using Microsoft Excel. PK parameters were calculated using WinNonlin Phenoix 8.2 software NCA (Tmax was a median).

T1 sequence (Q96P20 whole entry): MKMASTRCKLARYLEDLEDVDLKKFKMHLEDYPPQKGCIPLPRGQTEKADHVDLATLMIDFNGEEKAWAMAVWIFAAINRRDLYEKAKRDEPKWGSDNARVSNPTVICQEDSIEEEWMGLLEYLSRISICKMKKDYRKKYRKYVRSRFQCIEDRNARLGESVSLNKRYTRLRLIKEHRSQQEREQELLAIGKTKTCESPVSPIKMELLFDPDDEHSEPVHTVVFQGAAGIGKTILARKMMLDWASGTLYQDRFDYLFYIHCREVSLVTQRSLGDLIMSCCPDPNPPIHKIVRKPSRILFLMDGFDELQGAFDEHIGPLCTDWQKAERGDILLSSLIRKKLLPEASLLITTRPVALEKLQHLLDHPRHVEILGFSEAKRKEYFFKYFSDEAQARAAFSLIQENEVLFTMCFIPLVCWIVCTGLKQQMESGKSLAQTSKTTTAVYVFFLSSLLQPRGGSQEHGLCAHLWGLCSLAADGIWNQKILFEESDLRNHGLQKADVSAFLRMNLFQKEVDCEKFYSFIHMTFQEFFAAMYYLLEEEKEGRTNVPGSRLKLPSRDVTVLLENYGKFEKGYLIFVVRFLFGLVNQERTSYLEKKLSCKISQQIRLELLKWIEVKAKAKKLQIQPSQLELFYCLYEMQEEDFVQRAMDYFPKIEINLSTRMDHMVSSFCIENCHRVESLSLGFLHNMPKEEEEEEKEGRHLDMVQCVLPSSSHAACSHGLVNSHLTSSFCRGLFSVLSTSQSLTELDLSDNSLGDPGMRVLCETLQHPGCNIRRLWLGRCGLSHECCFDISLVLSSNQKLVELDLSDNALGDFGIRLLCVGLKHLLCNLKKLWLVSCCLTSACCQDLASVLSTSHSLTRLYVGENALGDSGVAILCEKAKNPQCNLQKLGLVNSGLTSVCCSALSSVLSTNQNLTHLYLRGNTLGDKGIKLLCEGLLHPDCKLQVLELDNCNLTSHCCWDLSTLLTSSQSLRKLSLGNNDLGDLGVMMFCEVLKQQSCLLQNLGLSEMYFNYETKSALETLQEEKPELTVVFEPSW

Row | Structure (SMILES) | IC50 [1] [nM] | microsomal CLint at 1 μM [2] [µL/min/mg] | half-life at 1 μM [2] [h] | microsomal CLint at 1 μM [3] [µL/min/mg] | half-life at 1 μM [3] [h] | further results
1 | C#Cc1ccc(-c2nnc(N[C@@H]3CCCN(C)C3)cc2C2CCC2)c(O)c1 [Compound 82, (R)-5-ethynyl-2-(4-cyclobutyl-6-((1-methylpiperidin-3-yl)amino)pyridazin-3-yl)phenol] | 1.1 | 8 | 2.88 | 10.4 | 2.22 | 
2 | C#Cc1ccc(-c2nnc(N[C@@H]3CCCC[C@H]3O)cc2C)c(O)c1 [Compound 83, 5-ethynyl-2-(6-(((1R,2R)-2-hydroxycyclohexyl)amino)-4-methylpyridazin-3-yl)phenol] | 6.1 | 3.8 | 6.08 | 10 | 2.32 | 
3 | [2H]C([2H])([2H])N1CCC[C@@H](Nc2nnc(-c3ccc(C#C)cc3O)c(C)n2)C1 [Compound 86, (R)-5-ethynyl-2-(5-methyl-3-((1-(methyl-d3)piperidin-3-yl)amino)-1,2,4-triazin-6-yl)phenol] | 0.3 | 6.6 | 3.5 | 7.8 | 2.97 | 
4 | [2H]C([2H])([2H])N1CCC[C@@H](Nc2nnc(-c3ccc(C#C)cc3O)n(C)c2=O)C1 [Compound 88, (R)-3-(4-ethynyl-2-hydroxyphenyl)-4-methyl-6-((1-(methyl-d3)piperidin-3-yl)amino)-1,2,4-triazin-5(4H)-one] | 1.2 | 1.6 | 14.4 | 2 | 11.6 | 
5 | C#Cc1ccc(-c2nnc(N[C@@H]3CCCN(CC)C3)cc2C)c(O)c1 [Compound 89, (R)-2-(6-((1-ethylpiperidin-3-yl)amino)-4-methylpyridazin-3-yl)-5-ethynylphenol] | 0.2 | 6.2 | 3.73 | 8 | 2.88 | 

Further lines, with some results ahead:

Row | IC50 [1] [nM] | microsomal CLint at 1 μM [2] [µL/min/mg] | half-life at 1 μM [2] [h] | microsomal CLint at 1 μM [3] [µL/min/mg] | half-life at 1 μM [3] [h] | Structure (SMILES) | further results
6 | 0.4 |  |  |  |  | C#Cc1ccc(-c2nnc(N[C@@H]3CCCN(CC)C3)cc2C2CC2)c(O)c1 [Compound 90, (R)-2-(4-cyclopropyl-6-((1-ethylpiperidin-3-yl)amino)pyridazin-3-yl)-5-ethynylphenol] | AUC(0-t) ([4]; iv 5 mg/kg, read-out: AUClast iv (0-24 h)): 4020 ng·h/mL; clearance ([4]; iv 5 mg/kg, read-out: Cl—obs iv (clearance rate) (converted)): 20.7 mL/min/kg; Vd ([4]; iv 5 mg/kg, read-out: Vss iv (distribution volume)): 6.23 L/kg; half-life ([4]; iv 5 mg/kg, read-out: tz1/2 iv (terminal half-life) (converted)): 3.23 h; bioavailability ([4]; po 10 mg/kg vs iv 5 mg/kg, read-out: F% (absolute bioavailability)): 94.5%; Tmax ([4]; po 10 mg/kg, median, read-out: Tmax po (time to peak plasma concentration)): 2 h; AUC(0-t) ([4]; po 10 mg/kg, read-out: AUClast po (0-24 h)): 7580 ng·h/mL; Cmax ([4]; po 10 mg/kg, read-out: Cmax po (peak concentration)): 900 ng/mL; half-life ([4]; po 10 mg/kg, read-out: tz1/2 po (terminal half-life) (converted)): 3.33 h
7 | 1.4 | 5 | 4.62 | 5.6 | 4.13 | C#Cc1ccc(-c2nnc(N[C@@H]3CCCN(CC)C3)c(=O)n2C)c(O)c1 [Compound 93, (R)-6-((1-ethylpiperidin-3-yl)amino)-3-(4-ethynyl-2-hydroxyphenyl)-4-methyl-1,2,4-triazin-5(4H)-one] | 
8 | 0.7 | 6.6 | 3.5 | 3.2 | 7.22 | C#Cc1ccc(-c2nnc(N[C@@H]3CCCN(CCO)C3)nc2C)c(O)c1 [Compound 99, (R)-5-ethynyl-2-(3-((1-(2-hydroxyethyl)piperidin-3-yl)amino)-5-methyl-1,2,4-triazin-6-yl)phenol] | 
9 | 1.3 | 1 | 23.1 | 0.4 | 57.8 | C#Cc1ccc(-c2nnc(N[C@@H]3CCCN(C)C3)cc2C(F)(F)F)c(O)c1 [Compound 114, (R)-5-Ethynyl-2-(4-trifluoromethyl-6-((1-methylpiperidin-3-yl)amino)pyridazin-3-yl)phenol] | 
10 | 0.3 | 3.6 | 6.42 | 20.2 | 1.14 | C#Cc1ccc(-c2nnc(N[C@@H]3CCCN(C)C3)cc2C(F)F)c(O)c1 [Compound 115, (R)-2-(4-Difluoromethyl-6-((1-methylpiperidin-3-yl)amino)pyridazin-3-yl)-5-ethynylphenol] | 
11 | 0.5 |  |  |  |  | C#Cc1ccc(-c2nnc(N[C@@H]3CCCNC3)cc2C2CC2)c(O)c1 [Compound 149, (R)-2-(4-cyclopropyl-6-(piperidin-3-ylamino)pyridazin-3-yl)-5-ethynylphenol] | Canine t1/2 [2]: →∞; Rat t1/2 [3]: →∞
